Laboratory results from US20100099670A1, “Benzoquinazoline derivatives” (priority 2007, published 2010).

Biological target: T1, human PcaR (Homo sapiens, UniProt P41180)
T1 construct: expressed in transfected cells; host or cells: CCL39 fibroblasts (hamster lung fibroblast line), stably transfected
T1 sequence (P41180 20-1078): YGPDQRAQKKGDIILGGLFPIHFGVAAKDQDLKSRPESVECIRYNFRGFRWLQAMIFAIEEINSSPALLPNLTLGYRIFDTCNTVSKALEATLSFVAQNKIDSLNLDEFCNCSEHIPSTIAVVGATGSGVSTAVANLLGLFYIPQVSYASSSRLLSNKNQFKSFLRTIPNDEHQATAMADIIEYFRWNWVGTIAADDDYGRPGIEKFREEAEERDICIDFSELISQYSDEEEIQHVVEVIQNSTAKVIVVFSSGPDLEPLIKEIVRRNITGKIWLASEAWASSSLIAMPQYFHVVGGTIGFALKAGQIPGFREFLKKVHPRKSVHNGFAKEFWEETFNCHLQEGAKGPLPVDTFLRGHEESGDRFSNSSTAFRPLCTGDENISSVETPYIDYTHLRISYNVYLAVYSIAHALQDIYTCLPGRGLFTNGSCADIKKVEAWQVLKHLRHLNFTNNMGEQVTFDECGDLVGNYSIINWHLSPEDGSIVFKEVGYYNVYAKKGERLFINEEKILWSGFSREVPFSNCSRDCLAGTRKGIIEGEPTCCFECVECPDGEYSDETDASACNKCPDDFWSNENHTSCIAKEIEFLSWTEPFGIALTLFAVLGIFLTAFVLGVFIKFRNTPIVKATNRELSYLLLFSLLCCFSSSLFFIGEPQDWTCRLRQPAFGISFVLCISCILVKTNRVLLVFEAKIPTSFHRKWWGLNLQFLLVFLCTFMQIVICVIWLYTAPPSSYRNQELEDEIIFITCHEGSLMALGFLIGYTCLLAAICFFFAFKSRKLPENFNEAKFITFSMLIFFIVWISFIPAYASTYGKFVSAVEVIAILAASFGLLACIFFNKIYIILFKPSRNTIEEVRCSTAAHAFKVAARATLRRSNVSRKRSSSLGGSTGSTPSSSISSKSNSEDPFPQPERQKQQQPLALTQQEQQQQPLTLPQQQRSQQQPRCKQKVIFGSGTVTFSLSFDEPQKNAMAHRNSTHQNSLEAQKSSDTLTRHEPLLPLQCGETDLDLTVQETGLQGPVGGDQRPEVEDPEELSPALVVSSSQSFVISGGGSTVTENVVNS
Assay: Inhibition of intracellular calcium transients stimulated by extracellular calcium (assay for intracellular free calcium)
Type: cell-based
Settings: CCL39 fibroblasts stably transfected with human PcaR; Fluo-3 AM; stimulated with calcium 2.5 mM final; read-out: IC50 (nm) (range in which compound fall)
Experimental: Inhibition of Intracellular Calcium Transients Stimulated by Extracellular Calcium
In the test system, which is described in detail below, the following ranges of IC50 values are found:
Assay for Intracellular Free Calcium:
A method to determine antagonism at the PcaR consists in measuring the inhibition of intracellular calcium transients stimulated by extracellular calcium.
CCL39 fibroblasts stably transfected with human PcaR are seeded at 40,000 cells/well into 96-well Viewplates and incubated for 24 hours. Medium is then removed and replaced with fresh medium containing 2 μM Fluo-3 AM (Molecular Probes, Leiden, The Netherlands), In routine experiments, cells are incubated at 37° C., 5% CO2 for 1 h. Afterwards, plates are washed twice with mHBS and wells are refilled with 100 μl mHBS containing the test compounds. Incubation is continued at room temperature for 15 minutes. To record changes of intracellular free calcium, plates are transferred to fluorescence-imaging plate reader (Molecular Devices, Sunnyvale, Calif., USA). A baseline consisting in 5 measurements of 0.4 seconds each (laser excitation 488 nm) is recorded. Cells are then stimulated with calcium (2.5 mM final), and fluorescence changes recorded over a period of 3 minutes.

Structure (SMILES) | IC50
C#CCOc1ccc2nc(C(=O)c3ccc4c(c3)OCCO4)nc(-c3ccc(C(C)C)cc3)c2c1 [Example 1, (2,3-Dihydro-benzo[1,4]dioxin-6-yl)-[4-(4-isopropyl-phenyl)-6-propargyloxy-quinazolin-2-yl]-methanone] | 0.5 to 1 nM
C#CCOc1ccc2nc(C(=O)c3ccc4c(c3)OCO4)nc(-c3ccc(C(C)C)cc3)c2c1 [Example 2, Benzo[1,3]dioxol-5-yl-[4-(4-isopropyl-phenyl)-6-propargyloxy-quinazolin-2-yl]-methanone] | 0.2 to 0.5 nM
C#CCOc1ccc2nc(C(=O)c3ccc4c(c3)CCO4)nc(-c3ccc(C(C)C)cc3)c2c1 [Example 3, (2,3-Dihydro-benzofuran-5-yl)-[4-(4-isopropyl-phenyl)-6-propargyloxy-quinazolin-2-yl]-methanone] | 0.2 to 0.5 nM
C#CCOc1ccc2nc(C(=O)c3ccc4c(c3)OC=CO4)nc(-c3ccc(C(C)C)cc3)c2c1 [Example 4, Benzo[1,4]dioxin-6-yl-[4-(4-isopropyl-phenyl)-6-propargyloxy-quinazolin-2-yl]-methanone] | 0.5 to 1 nM
C#CCOc1ccc2nc(C(=O)c3ccc4c(c3)CCC4)nc(-c3ccc(C(C)C)cc3)c2c1 [Example 5, Indan-5-yl-[4-(4-isopropyl-phenyl)-6-propargyloxy-quinazolin-2-yl]-methanone] | 0.5 to 1 nM
C#CCOc1ccc2nc(C(=O)c3ccc4c(c3)OCC4)nc(-c3ccc(C(C)C)cc3)c2c1 [Example 6, (2,3-Dihydro-benzofuran-6-yl)-[4-(4-isopropyl-phenyl)-6-propargyloxy-quinazolin-2-yl]-methanone] | 0.2 to 0.5 nM
C#CCOc1ccc2nc(C(=O)c3ccc4c(c3)OCCN4C)nc(-c3ccc(C(C)C)cc3)c2c1 [Example 7, [4-(4-Isopropyl-phenyl)-6-propargyloxy-quinazolin-2-yl]-(4-methyl-3,4-dihydro-2H-benzo[1,4]oxazin-7-yl)-methanone] | 0.2 to 0.5 nM
C#CCOc1ccc2nc(C(=O)c3ccc4occc4c3)nc(-c3ccc(C(C)C)cc3)c2c1 [Example 8, Benzofuran-5-yl-[4-(4-isopropyl-phenyl)-6-propargyloxy-quinazolin-2-yl]-methanone] | 0.2 to 0.5 nM
C#CCOc1ccc2nc(C(=O)c3ccc4c(c3)C(C)(C)CCC4(C)C)nc(-c3ccc(C(C)C)cc3)c2c1 [Example 9, [4-(4-Isopropyl-phenyl)-6-propargyloxy-quinazolin-2-yl]-(5,5,8,8-tetramethyl-5,6,7,8-tetrahydro-naphthalen-2-yl)-methanone] | 1 to 5 nM
C#CCOc1ccc2nc(C(=O)c3ccc4c(c3)N(C)CCO4)nc(-c3ccc(C(C)C)cc3)c2c1 [Example 10, [4-(4-Isopropyl-phenyl)-6-propargyloxy-quinazolin-2-yl]-(4-methyl-3,4-dihydro-2H-benzo[1,4]oxazin-6-yl)-methanone] | 1 to 5 nM
C#CCOc1ccc2nc(C(=O)c3nc4ccc(OC)cc4s3)nc(-c3ccc(C(C)C)cc3)c2c1 [Example 11, [4-(4-Isopropyl-phenyl)-6-propargyloxy-quinazolin-2-yl]-(6-methoxy-benzo-thiazol-2-yl)-methanone] | 5 to 10 nM
C#CCOc1ccc2nc(C(=O)c3ccc4c(c3)-c3ccccc3C4=O)nc(-c3ccc(C(C)C)cc3)c2c1 [Example 12, 3-[4-(4-Isopropyl-phenyl)-6-propargyloxy-quinazolin-2-carbonyl]-fluoren-9-one] | 0.2 to 0.5 nM
